# Results as given in ChEMBL document CHEMBL3616395, “Discovery of 4-arylamido 3-methyl isoxazole derivatives as novel FMS kinase inhibitors” (Eur J Med Chem, 2015).
# The source made the active and inactive calls. The rule behind the calls is not given here.
# Experiments:
# [1] = target: Proto-oncogene tyrosine-protein kinase ROS (Homo sapiens) (UniProt P08922); assay: Inhibition of ROS1 (unknown origin) at 10 uM after 40 mins by scintillation counting analysis
# [2] = target: cAMP-dependent protein kinase (PKA) (Homo sapiens) (UniProt P22694+P17612+P22612); assay: Inhibition of PKA (unknown origin) at 10 uM after 40 mins by scintillation counting analysis; format: protein assay
# [3] = target: Aurora kinase A (Homo sapiens) (UniProt O14965); assay: Inhibition of Aurora A (unknown origin) at 10 uM after 40 mins by scintillation counting analysis
# [4] = target: Epidermal growth factor receptor (Homo sapiens) (UniProt P00533); assay: Inhibition of EGFR (unknown origin) at 10 uM after 40 mins by scintillation counting analysis
# [5] = target: Mitogen-activated protein kinase 10 (Homo sapiens) (UniProt P53779); assay: Inhibition of JNK3 (unknown origin) at 10 uM after 40 mins by scintillation counting analysis
# [6] = target: Vascular endothelial growth factor receptor 1 (Homo sapiens) (UniProt P17948); assay: Inhibition of FLT1 (unknown origin) at 10 uM after 40 mins by scintillation counting analysis
# [7] = target: Cyclin-dependent kinase 2/cyclin E (Homo sapiens) (UniProt P24864+P24941+O96020); assay: Inhibition of CDK2/cyclin E (unknown origin) at 10 uM after 40 mins by scintillation counting analysis; format: protein-complex assay
# [8] = target: Angiopoietin-1 receptor (Homo sapiens) (UniProt Q02763); assay: Inhibition of TIE2 (unknown origin) at 10 uM after 40 mins by scintillation counting analysis
# [9] = target: Dual specificity mitogen-activated protein kinase kinase 1 (Homo sapiens) (UniProt Q02750); assay: Inhibition of MEK1 (unknown origin) at 10 uM after 40 mins by scintillation counting analysis
# [10] = target: Tyrosine-protein kinase HCK (Homo sapiens) (UniProt P08631); assay: Inhibition of HCK (unknown origin) at 10 uM after 40 mins by scintillation counting analysis
# [11] = target: Fibroblast growth factor receptor 3 (Homo sapiens) (UniProt P22607); assay: Inhibition of FGFR3 (unknown origin) at 10 uM after 40 mins by scintillation counting analysis
# [12] = target: Tyrosine-protein kinase Lyn (Homo sapiens, UniProt P07948); assay: Inhibition of Lyn (unknown origin) at 10 uM after 40 mins by scintillation counting analysis
# [13] = target: T1, Macrophage colony-stimulating factor 1 receptor (Homo sapiens, UniProt P07333); assay: Inhibition of FMS (unknown origin) at 10 uM after 40 mins by scintillation counting analysis
# [14] = target: ALK tyrosine kinase receptor (Homo sapiens) (UniProt Q9UM73); assay: Inhibition of ALK (unknown origin) at 10 uM after 40 mins by scintillation counting analysis
# [15] = target: Focal adhesion kinase 1 (Homo sapiens) (UniProt Q05397); assay: Inhibition of FAK (unknown origin) at 10 uM after 40 mins by scintillation counting analysis
# [16] = target: Tyrosine-protein kinase JAK1 (Homo sapiens) (UniProt P23458); assay: Inhibition of JAK1 (unknown origin) at 10 uM after 40 mins by scintillation counting analysis
# [17] = target: Tyrosine-protein kinase SYK (Homo sapiens) (UniProt P43405); assay: Inhibition of SYK (unknown origin) at 10 uM after 40 mins by scintillation counting analysis
# [18] = target: Tyrosine-protein kinase Lck (Homo sapiens) (UniProt P06239); assay: Inhibition of LCK (unknown origin) at 10 uM after 40 mins by scintillation counting analysis
# [19] = target: T1, Macrophage colony-stimulating factor 1 receptor; assay: Inhibition of FMS (unknown origin) after 40 mins by scintillation counting analysis
# [20] = target: Serine/threonine-protein kinase PLK1 (Homo sapiens) (UniProt P53350); assay: Inhibition of PLK1 (unknown origin) at 10 uM after 40 mins by scintillation counting analysis
# [21] = target: Hepatocyte growth factor receptor (Homo sapiens) (UniProt P08581); assay: Inhibition of c-MET (unknown origin) at 10 uM after 40 mins by scintillation counting analysis
# [22] = target: Vascular endothelial growth factor receptor 2 (Homo sapiens) (UniProt P35968); assay: Inhibition of VEGFR2 (unknown origin) at 10 uM after 40 mins by scintillation counting analysis
# [23] = target: Vascular endothelial growth factor receptor 3 (Homo sapiens) (UniProt P35916); assay: Inhibition of FLT4 (unknown origin) at 10 uM after 40 mins by scintillation counting analysis
# [24] = target: Tyrosine-protein kinase ABL1 (Homo sapiens) (UniProt P00519); assay: Inhibition of ABL1 (unknown origin) at 10 uM after 40 mins by scintillation counting analysis
# [25] = target: Mast/stem cell growth factor receptor Kit (Homo sapiens) (UniProt P10721); assay: Inhibition of c-Kit (unknown origin) at 10 uM after 40 mins by scintillation counting analysis
# [26] = target: Cyclin-dependent kinase 1/cyclin B (Homo sapiens) (UniProt P06493+P14635+Q8WWL7+O95067); assay: Inhibition of CDK1/cyclin B (unknown origin) at 10 uM after 40 mins by scintillation counting analysis; format: protein-complex assay
# [27] = target: Platelet-derived growth factor receptor alpha (Homo sapiens) (UniProt P16234); assay: Inhibition of PDGFRalpha (unknown origin) at 10 uM after 40 mins by scintillation counting analysis
# [28] = target: Protein kinase C (PKC) (Homo sapiens) (UniProt O94806+P41743+P17252+P05129+Q05655+P05771+Q05513+Q02156+P24723+Q15139+Q04759); assay: Inhibition of PKC (unknown origin) at 10 uM after 40 mins by scintillation counting analysis
# [29] = target: Tyrosine-protein kinase ITK/TSK (Homo sapiens) (UniProt Q08881); assay: Inhibition of ITK (unknown origin) at 10 uM after 40 mins by scintillation counting analysis
# [30] = target: Insulin-like growth factor 1 receptor (Homo sapiens) (UniProt P08069); assay: Inhibition of IGF1R (unknown origin) at 10 uM after 40 mins by scintillation counting analysis
# [31] = target: Fibroblast growth factor receptor 2 (Homo sapiens) (UniProt P21802); assay: Inhibition of FGFR2 (unknown origin) at 10 uM after 40 mins by scintillation counting analysis
# [32] = system: Serine/threonine-protein kinase B-raf (Homo sapiens), P15056 [V600E]; assay: Inhibition of BRAF V599E mutant (unknown origin) at 10 uM after 40 mins by scintillation counting analysis
# U-937 = assay: Antiproliferative activity against human U937 cells after 24 hrs by MTT assay; format: functional
# [33] = target: Serine/threonine-protein kinase mTOR (Homo sapiens, UniProt P42345); assay: Inhibition of mTOR (unknown origin) at 10 uM after 40 mins by scintillation counting analysis
# [34] = target: Mitogen-activated protein kinase 3 (Homo sapiens) (UniProt P27361); assay: Inhibition of ErK1 (unknown origin) at 10 uM after 40 mins by scintillation counting analysis
# [35] = target: Receptor-type tyrosine-protein kinase FLT3 (Homo sapiens) (UniProt P36888); assay: Inhibition of FLT3 (unknown origin) at 10 uM after 40 mins by scintillation counting analysis
# Receptor-type tyrosine-protein kinase FLT3 (Homo sapiens), sequence (P36888 whole entry): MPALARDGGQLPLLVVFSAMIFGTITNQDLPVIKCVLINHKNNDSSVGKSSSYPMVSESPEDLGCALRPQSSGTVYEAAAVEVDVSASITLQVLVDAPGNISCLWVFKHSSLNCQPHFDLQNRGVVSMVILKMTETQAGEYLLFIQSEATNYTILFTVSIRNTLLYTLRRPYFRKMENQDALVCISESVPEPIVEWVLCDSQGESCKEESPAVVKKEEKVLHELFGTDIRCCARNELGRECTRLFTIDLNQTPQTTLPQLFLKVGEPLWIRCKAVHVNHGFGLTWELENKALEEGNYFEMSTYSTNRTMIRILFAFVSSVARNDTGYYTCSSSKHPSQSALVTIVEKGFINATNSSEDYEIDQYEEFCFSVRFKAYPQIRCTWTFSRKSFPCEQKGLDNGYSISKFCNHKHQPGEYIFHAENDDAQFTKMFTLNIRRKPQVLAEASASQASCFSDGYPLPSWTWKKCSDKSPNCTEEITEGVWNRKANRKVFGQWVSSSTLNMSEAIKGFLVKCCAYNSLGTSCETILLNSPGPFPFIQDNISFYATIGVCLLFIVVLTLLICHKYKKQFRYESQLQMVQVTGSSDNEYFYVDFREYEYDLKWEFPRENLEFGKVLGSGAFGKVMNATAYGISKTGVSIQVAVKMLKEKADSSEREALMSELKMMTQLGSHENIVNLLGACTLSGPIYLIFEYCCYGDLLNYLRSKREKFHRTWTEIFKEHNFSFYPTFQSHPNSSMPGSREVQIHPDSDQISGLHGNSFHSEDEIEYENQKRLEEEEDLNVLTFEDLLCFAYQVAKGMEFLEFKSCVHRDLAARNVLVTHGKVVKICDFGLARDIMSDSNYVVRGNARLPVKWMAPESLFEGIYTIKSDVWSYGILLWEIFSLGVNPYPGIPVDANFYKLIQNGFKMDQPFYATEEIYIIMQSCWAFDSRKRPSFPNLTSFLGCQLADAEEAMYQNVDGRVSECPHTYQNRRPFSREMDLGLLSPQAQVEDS
# T1 sequence (P07333 whole entry): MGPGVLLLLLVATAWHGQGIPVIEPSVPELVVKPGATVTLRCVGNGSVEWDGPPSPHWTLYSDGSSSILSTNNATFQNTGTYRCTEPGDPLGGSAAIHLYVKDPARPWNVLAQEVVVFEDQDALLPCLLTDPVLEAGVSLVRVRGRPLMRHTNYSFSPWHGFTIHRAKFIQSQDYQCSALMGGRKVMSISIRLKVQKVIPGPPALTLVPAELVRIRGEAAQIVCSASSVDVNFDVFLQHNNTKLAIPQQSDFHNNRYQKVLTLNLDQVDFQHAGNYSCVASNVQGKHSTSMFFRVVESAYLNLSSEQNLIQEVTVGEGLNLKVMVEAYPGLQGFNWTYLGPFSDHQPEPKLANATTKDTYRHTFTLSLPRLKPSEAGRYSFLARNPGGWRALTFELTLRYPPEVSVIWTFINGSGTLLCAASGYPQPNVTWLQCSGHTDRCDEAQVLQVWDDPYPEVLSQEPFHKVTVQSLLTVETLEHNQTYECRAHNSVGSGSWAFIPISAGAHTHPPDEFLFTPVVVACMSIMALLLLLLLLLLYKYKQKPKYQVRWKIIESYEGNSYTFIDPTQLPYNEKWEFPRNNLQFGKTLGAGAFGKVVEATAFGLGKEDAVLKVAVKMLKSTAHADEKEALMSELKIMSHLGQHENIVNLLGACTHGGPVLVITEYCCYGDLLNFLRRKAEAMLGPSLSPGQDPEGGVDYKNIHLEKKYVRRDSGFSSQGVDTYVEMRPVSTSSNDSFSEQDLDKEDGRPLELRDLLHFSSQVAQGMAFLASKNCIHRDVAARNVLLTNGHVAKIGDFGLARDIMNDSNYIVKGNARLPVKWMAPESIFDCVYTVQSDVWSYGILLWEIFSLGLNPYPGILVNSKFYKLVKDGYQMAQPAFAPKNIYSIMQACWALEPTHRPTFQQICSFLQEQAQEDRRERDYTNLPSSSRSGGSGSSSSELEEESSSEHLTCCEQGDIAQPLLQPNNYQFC
# Serine/threonine-protein kinase B-raf (Homo sapiens), P15056 [V600E], sequence (P15056 whole entry V600E): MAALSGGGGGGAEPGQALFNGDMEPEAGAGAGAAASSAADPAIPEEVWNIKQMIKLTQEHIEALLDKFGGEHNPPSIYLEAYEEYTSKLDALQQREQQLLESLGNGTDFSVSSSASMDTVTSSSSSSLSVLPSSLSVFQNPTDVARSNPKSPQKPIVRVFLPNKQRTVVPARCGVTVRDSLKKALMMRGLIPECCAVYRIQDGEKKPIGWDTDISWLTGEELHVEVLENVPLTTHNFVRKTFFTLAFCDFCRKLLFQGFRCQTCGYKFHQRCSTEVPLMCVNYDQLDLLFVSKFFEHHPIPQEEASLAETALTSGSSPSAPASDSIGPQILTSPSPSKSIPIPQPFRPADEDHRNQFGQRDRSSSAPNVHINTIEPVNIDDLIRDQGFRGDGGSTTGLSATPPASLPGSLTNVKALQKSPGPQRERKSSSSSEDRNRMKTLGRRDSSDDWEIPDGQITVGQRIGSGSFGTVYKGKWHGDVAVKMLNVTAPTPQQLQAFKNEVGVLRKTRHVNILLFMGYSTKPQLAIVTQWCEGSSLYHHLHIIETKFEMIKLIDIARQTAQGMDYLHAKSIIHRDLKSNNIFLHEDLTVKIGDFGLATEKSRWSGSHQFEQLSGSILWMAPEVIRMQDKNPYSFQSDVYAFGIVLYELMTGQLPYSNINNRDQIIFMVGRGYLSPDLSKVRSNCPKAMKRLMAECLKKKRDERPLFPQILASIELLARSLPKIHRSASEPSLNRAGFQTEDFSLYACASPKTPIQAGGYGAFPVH
# Mast/stem cell growth factor receptor Kit (Homo sapiens), sequence (P10721 whole entry): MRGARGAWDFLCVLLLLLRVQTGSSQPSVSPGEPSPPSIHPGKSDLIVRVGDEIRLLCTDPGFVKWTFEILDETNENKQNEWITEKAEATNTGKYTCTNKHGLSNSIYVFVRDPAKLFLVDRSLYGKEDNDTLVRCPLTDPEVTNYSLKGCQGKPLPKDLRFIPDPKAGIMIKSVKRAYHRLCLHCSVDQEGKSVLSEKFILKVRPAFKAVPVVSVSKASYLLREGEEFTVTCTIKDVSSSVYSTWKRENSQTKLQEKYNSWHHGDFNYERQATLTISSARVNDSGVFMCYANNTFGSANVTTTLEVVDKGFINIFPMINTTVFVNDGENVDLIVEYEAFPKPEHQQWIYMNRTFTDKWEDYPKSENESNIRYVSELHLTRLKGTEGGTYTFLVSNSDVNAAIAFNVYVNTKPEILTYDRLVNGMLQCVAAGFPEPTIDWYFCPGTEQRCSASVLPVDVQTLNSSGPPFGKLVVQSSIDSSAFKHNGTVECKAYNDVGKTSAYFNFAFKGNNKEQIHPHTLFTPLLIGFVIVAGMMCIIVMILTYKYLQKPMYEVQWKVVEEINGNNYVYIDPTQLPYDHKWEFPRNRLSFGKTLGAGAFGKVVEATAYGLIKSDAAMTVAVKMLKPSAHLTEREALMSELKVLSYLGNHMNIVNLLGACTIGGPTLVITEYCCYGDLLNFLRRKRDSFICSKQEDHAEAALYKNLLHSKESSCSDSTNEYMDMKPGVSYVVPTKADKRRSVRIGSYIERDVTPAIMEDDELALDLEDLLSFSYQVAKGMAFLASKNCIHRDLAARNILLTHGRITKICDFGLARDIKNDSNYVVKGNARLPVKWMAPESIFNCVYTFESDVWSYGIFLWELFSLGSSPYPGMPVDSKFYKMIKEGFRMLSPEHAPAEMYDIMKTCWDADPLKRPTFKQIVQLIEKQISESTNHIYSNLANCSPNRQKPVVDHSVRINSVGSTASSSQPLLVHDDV
# Angiopoietin-1 receptor (Homo sapiens), sequence (Q02763 whole entry): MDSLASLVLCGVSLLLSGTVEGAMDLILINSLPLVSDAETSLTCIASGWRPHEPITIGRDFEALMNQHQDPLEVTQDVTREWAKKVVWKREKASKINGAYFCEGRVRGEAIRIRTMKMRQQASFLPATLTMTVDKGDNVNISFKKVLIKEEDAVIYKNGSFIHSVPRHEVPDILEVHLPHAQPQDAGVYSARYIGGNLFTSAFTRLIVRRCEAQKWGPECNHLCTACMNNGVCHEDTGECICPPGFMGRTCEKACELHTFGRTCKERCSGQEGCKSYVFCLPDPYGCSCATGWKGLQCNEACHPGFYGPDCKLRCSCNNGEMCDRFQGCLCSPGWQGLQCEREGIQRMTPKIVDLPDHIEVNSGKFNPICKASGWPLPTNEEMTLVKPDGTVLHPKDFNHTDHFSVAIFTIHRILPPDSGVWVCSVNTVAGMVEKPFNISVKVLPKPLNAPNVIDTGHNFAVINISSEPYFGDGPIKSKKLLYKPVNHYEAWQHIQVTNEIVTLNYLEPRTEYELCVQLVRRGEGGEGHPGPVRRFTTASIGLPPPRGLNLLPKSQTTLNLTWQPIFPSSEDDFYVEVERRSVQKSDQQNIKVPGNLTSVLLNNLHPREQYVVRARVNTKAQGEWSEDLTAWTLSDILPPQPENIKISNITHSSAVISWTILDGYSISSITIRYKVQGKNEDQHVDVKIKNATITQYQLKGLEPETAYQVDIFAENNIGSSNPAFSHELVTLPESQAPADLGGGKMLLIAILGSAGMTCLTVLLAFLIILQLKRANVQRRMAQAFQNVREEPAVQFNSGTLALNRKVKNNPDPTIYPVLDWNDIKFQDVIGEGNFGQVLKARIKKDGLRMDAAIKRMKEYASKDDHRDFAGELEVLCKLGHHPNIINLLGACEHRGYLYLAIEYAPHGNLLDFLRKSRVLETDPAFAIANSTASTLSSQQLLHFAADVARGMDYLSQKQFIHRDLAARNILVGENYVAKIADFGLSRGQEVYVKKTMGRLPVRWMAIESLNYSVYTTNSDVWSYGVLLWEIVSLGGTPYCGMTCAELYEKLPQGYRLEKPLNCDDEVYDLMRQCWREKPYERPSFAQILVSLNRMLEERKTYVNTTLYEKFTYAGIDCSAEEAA
compound,measurement,setting,value
Cc1ccccc1C(=O)Nc1cnoc1C,inhibition,[1],inactive
same,inhibition,[2],inactive
same,inhibition,[3],inactive
same,inhibition,[4],inactive
same,inhibition,[5],inactive
same,inhibition,[6],inactive
same,inhibition,[7],inactive
same,inhibition,[8],inactive
same,inhibition,[9],inactive
same,inhibition,[10],inactive
same,inhibition,[11],inactive
same,inhibition,[12],inactive
same,inhibition,[13],inactive
same,inhibition,[14],inactive
same,inhibition,[15],inactive
same,inhibition,[16],inactive
same,inhibition,[17],inactive
same,inhibition,[18],inactive
same,IC50,[19],216 nM
same,inhibition,[20],inactive
same,inhibition,[21],inactive
same,inhibition,[22],inactive
same,inhibition,[23],inactive
same,inhibition,[24],inactive
same,inhibition,[25],inactive
same,inhibition,[26],inactive
same,inhibition,[27],inactive
same,inhibition,[28],inactive
same,inhibition,[29],inactive
same,inhibition,[30],inactive
same,inhibition,[31],inactive
same,inhibition,[32],inactive
same,GI50,U-937,Active
same,inhibition,[33],inactive
same,inhibition,[34],inactive
same,inhibition,[35],inactive
